Reference: publication PMC3507590 (Diabetes Care, 2012)
Read-outs that look alike come from different tables or passages of the source.

How the values were obtained:
insulin receptors (IR) = conditions: cited from earlier work
IGF-1 receptor (IGF-1R) = conditions: cited from earlier work; for affinity for IGF-1 receptor versus human insulin: as stated in the abstract
animals = conditions: in vivo in animals; cited from earlier work
[1] = for detectability / plasma concentration after s.c. glargine: any dose (0.3-1.2 units/kg), any time point 3-30 h, LLOQ 33 pmol/L
[2] = system: insulin/IGF-1 hybrid receptors; conditions: in vitro; ref Pierre-Eugene et al., PLoS One 2012;7:e41992; cited from earlier work
[3] = system: malignant cell lines expressing primarily IGF-1R; conditions: cited from earlier work
[4] = system: subjects with type 1 and type 2 diabetes; conditions: after multiple dosing; cited from earlier work
[5] = acidic pH; precipitates amorphously upon s.c. injection; cited from earlier work
MCF-7 cells = conditions: ref Pierre-Eugene et al., PLoS One 2012;7:e41992; cited from earlier work
[6] = in vitro, 37°C, mass spectrometry; cited from earlier work
[7] = in vitro; cited from earlier work

## 10^B-Asp-human insulin [X10, reference compound]
Insulin receptors (IR)
  affinity for IR: greater affinity
IGF-1 receptor (IGF-1R)
  affinity for IGF-1R: greater affinity

## 21^A-Gly-31^B-Arg-32^B-Arg-human insulin [glargine, reference compound]
animals
  tumor growth promotion: does not promote tumor growth
[1]
  detectability / plasma concentration after s.c. glargine: nearly always fall below LLOQ
[1]; listed as Glargine
  detectability / plasma concentration after s.c. glargine: detectable in only one-third of subjects
[2]
  potency for stimulation of insulin/IGF-1 hybrid receptors versus human insulin: higher potency
[3]; in vitro, malignant cell lines expressing primarily IGF-1R
  potency on DNA synthesis (mitogenic effects) compared with human insulin: greater potency
IGF-1 receptor (IGF-1R); in vitro
  affinity for IGF-1 receptor versus human insulin: slightly higher affinity
  binding affinity for IGF-1R compared with human insulin: greater binding affinity
[4]
  duration of action: > 24 h
[5]
  solubility: Soluble at acidic pH
MCF-7 cells
  proliferative/antiapoptotic effects versus human insulin: greater proliferative/antiapoptotic effects
[6]
  time for quantitative degradation into M1 in human serum: ≤ 1 h

## 21^A-Gly-des-30^B-Thr-human insulin [M2]
[1]; after s.c. glargine, associated with high M1 concentration
  time of first appearance in plasma: first appeared after 12 h
[7]
  metabolic properties relative to human insulin: fully retaining its metabolic properties
[2]
  potency for stimulation of insulin/IGF-1 hybrid receptors versus human insulin: lower potency
[3]
  mitogenic potential in vitro compared with glargine, and even with human insulin: lower mitogenic potential
IGF-1 receptor (IGF-1R); in vitro
  affinity for IGF-1 receptor versus human insulin: lower affinity
  affinity for IGF-1R compared with glargine, and even with human insulin: lower affinity

## 21^A-Gly-human insulin [M1]
[1]; M1 PK profile, doses 0.3, 0.6, 1.2 units/kg
  time of maximum plasma concentrations after subcutaneous injection of glargine: ~12 h
[1]; doses >0.3 units/kg
  plasma concentration by 30 h versus baseline: still elevated over baseline
[7]
  metabolic properties relative to human insulin: fully retaining its metabolic properties
[2]
  potency for stimulation of insulin/IGF-1 hybrid receptors versus human insulin: lower potency
[3]
  mitogenic potential in vitro compared with glargine, and even with human insulin: lower mitogenic potential
IGF-1 receptor (IGF-1R); in vitro
  affinity for IGF-1 receptor versus human insulin: lower affinity
  affinity for IGF-1R compared with glargine, and even with human insulin: lower affinity

## 31^B-Arg-32^B-Arg-human insulin [reference compound]
IGF-1 receptor (IGF-1R); in vitro
  IGF-1R affinity compared with glargine: even greater IGF-1R affinity
